“Also recorded” adds a separate entry of the source. Like-named read-outs stand apart in the source and are kept apart here.
What was measured:
HIV-1 strain DV = assay: HIV-1 induced syncytia formation assay in SUP T1 cells; assay type: cell-based
SIVMAC251 = assay type: cell-based, simian immunodeficiency virus; details: SIVMAC251, MT4; read-out: IC50 virus production
[1] = test system: HIV-1 strains (SKI, RF, DV, IIIB, ADP/141); details: previously reported by Ojwang et al.; cited from earlier work
[2] = design: species or system cynomolgus monkeys; details: cynomolgus monkey, in vivo
Description: Dosing. Twelve experimentally naive cynomolgus monkeys were assigned to four groups of three animals each. Prior to dosing, each animal was lightly sedated with a combination of ketamine (1 0 mg/kg) and diazepam (0.5 mg/kg), and a catheter was introduced into the femoral artery for recording central arterial pressure. Monkeys were given a single intravenous infusion of 5, 20, or 50 mg AR177/kg or saline over ten minutes through a cephalic vein catheter using a Harvard infusion pump. Arterial blood samples were drawn at −10, +10, +20, +40, +60 and +120 minutes relative to the initiation of infusion into EDTA-containing tubes for hematology, complement factors, coagulation assay, serum chemistry, and plasma AR177 determination. At 24 hours post-infusion, blood was drawn via the femoral vein into EDTA-containing tubes for these same parameters. The concentration of AR177 in dosing solutions was confirmed post experiment by absorbance at 280 nm on a spectrophotometer. For the determination of AR177 by HPLC, the plasma fraction was obtained by low speed centrifugation of blood, and stored at −20° C. until used. Electrocardiograms (ECGs), central pressure, and heart rate were recorded continuously for 120 minutes following the initiation of doing. Table E-1 summarizes the study design. […]
Complement factors. The complement split product Bb and total hemolytic complement CH50 were determined. […]

[3] = design: species or system cynomolgus monkeys; details: cynomolgus monkey, in vivo; remark: listed apart in the source
Description: Hematology and coagulation parameters. Hematology and coagulation parameters were determined 9-11 days prior to the start of the study, just prior to administering doses 1 (day 1) and 12 (day 23), five minutes after dosing (coagulation only), 30 minutes and 4 hours following dosing, one day after the 12th dose (day 24), and in recovery monkeys at sacrifice (day 37). The following were determined: red blood cell count and morphology, total and differential while blood cells, hemoglobin, hematocrit, prothrombin time, fibrinogen, mean cell hemoglobin, mean corpuscular volume, mean corpuscular hemoglobin concentration, platelet count, activate partial thromboplastin time, and D-dime. Hematology was determined at Sierra Nevada Laboratories (Reno, Nev.).

HIV-1IIIB = assay: Long term suppression assay, MT-4 cells; assay type: cell-based
Macrophages = assay type: cell-based, human
Description: (§1) In other experiments of the effect of T30177 on the viability of primary human PBMCs, PBLs and macrophages was determined using the trypan blue dye exclusion technique. Griffiths, B., IRL Press, p. 48 (1992), or by measuring the degree of [^3H]thymidine or [^3]leucine uptake in these cells (McGrath, M. S., et al. Proc. Natl. Acad. Sci. USA 86:2844-2848 (1989)).
(§2) Cytotoxicity Assays. The cytotoxicity of T30177 was determined using several different cell lines and primary human cells as described above. The cytotoxicity profile obtained for log phase growing cells was variable depending upon the cell line used, while the slower growing PBMCs, PBLs, and macrophages all tolerated the compound at concentrations exceeding 100 μM as monitored using the trypan blue exclusion, [^3H]thymidine uptake, or [^3H]leucine uptake techniques.

PBLs = assay type: cell-based, human
Description: as §1, §2

PBMC = assay type: cell-based, human
Description: as §1, §2

Cc1cn([C@H]2C[C@H](N=[N+]=[N-])[C@@H](CO)O2)c(=O)[nH]c1=O [AZT, 3′-azido-3′-deoxythymidine]
reappearance of syncytium after removal of drug (HIV-1 strain DV; 4 μM, removed day 4): two days after removal
IC50 (HIV-1 strain DV; Human immunodeficiency virus 1, 96 h, SUP T1, HIV-1DV, four days, read-out: IC50 Syn (syncytium inhibition)): 0.04 µM
IC50 (HIV-1 strain DV; Human immunodeficiency virus 1, SUP-T1, size variants of I100-15, read-out: IC50 Syn.): 0.02 µM

5′-gtggtgggtgggtgggt-3′ [T30177] (GTGGTGGGTGGGTGGGT; phosphorothioate termini, further chemistry not given here) [pPT version of parent compound I100-15, 17 mer]
IC50 (SIVMAC251): 1.5 ± 1.2 µM
IC50 virus-induced cytopathogenicity (HSV-1; HSV-1 (KOS)): >200 µg/mL
MCC minimum concentration altering normal cell morphology (HSV-1; HSV-1 (KOS) assay): 400 μg/mL
IC50 virus-induced cytopathogenicity (HSV-1; HSV-1 TK (B2006)): >200 µg/mL
MCC minimum concentration altering normal cell morphology (HSV-1; HSV-1 TK (B2006) assay): 400 μg/mL
IC50 virus-induced cytopathogenicity (HSV-1; HSV-1 TK (VMW1837)): >200 µg/mL
MCC minimum concentration altering normal cell morphology (HSV-1; HSV-1 TK (VMW1837) assay): 400 μg/mL
IC50 [1]: 0.075 µM

5′-gtggtgggtgggtgggt-3′ (GTGGTGGGTGGGTGGGT; phosphorothioate termini, further chemistry not given here) [T30177, pPT version of parent compound I100-15, 17 mer]
CH50 levels [2]: small and transient decreases
change in CHX (CH50) levels [2]: −25%
IC50 virus-induced cytopathogenicity (Junin virus; Junin virus): >50 µg/mL
MCC minimum concentration altering normal cell morphology (Junin virus; Junin virus assay): >50 μg/mL
eosinophils [3]: acute decrease in eosinophils
lymphocytes [3]: acute and transient increase in lymphocytes
viral DNA (PCR) 11 days after removal of drug (HIV-1IIIB): unable to detect the presence of viral DNA; also recorded: no detectable viral cDNA
protection of treated cells from reinfection with HIV-1IIIB (HIV-1IIIB; 100-fold over IC50, 4 days): no protection of cells from the second round of viral infection
CC50 (Macrophages): > 100 µM
TC25 (Macrophages): >100 µM
TC95 (Macrophages): >100 µM
CC50 (PBLs): > 100 µM
TC25 (PBLs): >100 µM
TC95 (PBLs): >100 µM
CC50 (PBMC): > 100 µM
TC25 (PBMC): >100 µM
TC95 (PBMC): >100 µM

From patent publication US6355785B1, “Guanosine-rich oligonucleotide integrase inhibitors” (Aronex Pharmaceuticals, Inc., priority 1993, dated 2002)
